The nature of the data set: Inclusion of poorly water-soluble substance (curcumin): absorbance of supernatant at 405 nm. The note with it: 0.002 mol/L monomer glucose; curcumin in acetone, 1 vol. % acetone; 3 hours, 25° C.; after centrifugation. The class given is physicochemical. From the text: In order to examine the change in characteristics of centrifugally regenerated β-1,3-1,6-glucan in association with powder formation, the envelopment and solubilizing capacity of the centrifugally regenerated β-1,3-1,6-glucan with respect to poorly water-soluble substances were compared.
β-1,3-1,6-glucan (lyophilized) derived from Aureobasidium pullulans was used as the centrifugally regenerated β-1,3-1,6-glucan powder, and curcumin (available from Tokyo Chemical Industry Co., Ltd., catalog number: 00435) was used as the poorly water-soluble substance.
The centrifugally regenerated β-1,3-1,6-glucan powder was dissolved in distilled water at a concentration of 1.0% by mass, and the glucose concentration was calculated through the phenol-sulfuric acid method, after which the solution was diluted and used. […]
Each centrifugally regenerated β-1,3-1,6-glucan solution having a monomer glucose concentration adjusted to 0.002 mol/L was prepared at an amount of 1 mL each, and an acetone solution of curcumin adjusted to a concentration of 0.05 mol/L was added such that the final concentration of acetone was 1 vol. %. […] Centrifugation (KUBOTA3740 (available from Kubota Manufacturing Co., Ltd.), 14000 G, 5 minutes) was carried out, the insoluble matter was removed, and the absorbance of the supernatant at a wavelength of 405 nm was compared. […]

The text below walks through data of patent US11384159B2, “B-1,3-1,6-glucan powder, glucan-containing composition, method for producing B-1,3-1,6-glucan powder, inclusion complex, method for producing inclusion complex, and method for recovering guest molecule” (MITSUBISHI GAS CHEMICAL COMPANY, INC., priority 2017, dated 2022).

Turning to `COc1cc(/C=C/C(=O)CC(=O)/C=C/c2ccc(O)c(OC)c2)ccc1O` [curcumin], the “absorbance (wavelength of 405 nm) originating from the curcumin in the supernatant” value is recorded as 0.045.
